Data from patent US5459132A, “N6-[(Imidazo[1,2-a]pyridin-3-yl)ethyl]adenosines, their 5'-uronamide analogues and pharmaceutical compositions” (Laboratoires UPSA, priority 1994, dated 1995).

How the values were obtained:
mice = assay: Phenylbenzoquinone test (analgesic activity); format: in vivo; details: one hour before phenylbenzoquinone injection, 5 minutes observation
Protocol: 2. Phenylbenzoquinone test
The intraperitoneal injection of phenylbenzoquinone causes twisting and stretching movements in mice. Analgesics prevent or reduce this syndrome, which can be considered as the exteriorization of diffuse abdominal pain.
A 0.02% solution of phenylbenzoquinone in water is administered in a volume of 1 ml/100 g.
The products of the Examples are administered orally one hour before the injection of phenylbenzoquinone.
The stretching and twisting movements are counted for each mouse over an observation period of 5 minutes.

Balbc 3T3 fibroblasts = assay: Inhibition of the cell proliferation induced by a growth factor (PDGF) in Balbc 3T3 fibroblasts, ^3H-thymidine incorporation; format: cell-based; details: for % inhibition of the incorporation of ^3H-thymidine stimulated by PDGF, 1E-6M: test molecule 1E-6M
Protocol: Measurement of the inhibition of the cell proliferation induced by a growth factor in Balbc […] 3T3 fibroblasts
Inhibition of the cell proliferation induced by a growth factor (for example PDGF) is evaluated by measuring the incorporation of ^3 H-thymidine into Balbc 3T3 fibroblasts.
The Balbc 3T3 fibroblasts are cultivated at 37° C. with 5% of CO2 up to the point of subconfluence and are then placed for 18 hours under rest conditions in a serum-impoverished medium. They are subsequently pretreated for one hour with the test molecule (10^-5 M and/or 10^-6 M) and then stimulated for 22 hours with a growth factor (for example PDGF). ^3 H-Thymidine is incorporated over the last 2 hours. All these steps are performed at 37° C. with 5% of CO2.
The reaction is terminated by sucking off the reaction medium, detaching the cells and then filtering the lyzed cells through glass fiber filters.
The results are expressed as the percentage inhibition of the stimulation of ^3 H-thymidine incorporation induced by the growth factor.

Compound	Phenylbenzoquinone test % inhibition at 30 mg/kg p.o. (mice) [%]	% inhibition of the incorporation of ^3H-thymidine stimulated by PDGF, 1E-6M (Balbc 3T3 fibroblasts) [%]	% inhibition of the incorporation of ^3H-thymidine stimulated by PDGF, 1E-5M (Balbc 3T3 fibroblasts; test molecule 1E-5M) [%]
O=C(NC1CC1)[C@H]1O[C@@H](n2cnc3c(NCCc4cnc5c(OCc6ccccc6)cccn45)ncnc32)[C@H](O)[C@@H]1O [Example 33, β-D-Ribofuranuronamido-N-cyclopropyl-1-deoxy-1-[6-[[2-[8-(phenylmethoxy)imidazo[1,2-a]pyridin-3-yl]ethyl]amino]-9H-purin-9-yl]]	39	–	–
Cc1ccc(C)c(COc2cccn3c(CCNc4ncnc5c4ncn5[C@@H]4O[C@H](C(=O)NC5CC5)[C@@H](O)[C@H]4O)cnc23)c1 [Example 34, β-D-Ribofuranuronamido-N-cyclopropyl-1-deoxy-1-[6-[[2-[[8-(2,5-dimethylphenyl)methoxy]imidazo[1,2-a]pyridin-3-yl]ethyl]amino]-9H-purin-9-yl]]	57	72	–
COCCOc1cccn2c(CCNc3ncnc4c3ncn4[C@@H]3O[C@H](C(=O)NC4CC4)[C@@H](O)[C@H]3O)cnc12 [Example 35, β-D-Ribofuranuronamido-N-cyclopropyl-1-deoxy-1-[6-[[2-[8-(2-methoxyethoxy)imidazo[1,2-a]pyridin-3-yl]ethyl]amino]-9H-purin-9-yl]]	25	–	–
Cc1ccc(C)c(COc2cccn3c(CCNc4ncnc5c4ncn5[C@@H]4O[C@H](C(=O)NC5CC5)[C@@H](O)[C@H]4O)c(C)nc23)c1 [Example 36, β-D-Ribofuranuronamido-N-cyclopropy-1-deoxy-1-[6-[[2-[[8-(2,5-dimethylphenyl)methoxy]-2-methylimidazo[1,2-a]pyridin-3-yl]ethyl]amino]-9H-purin-9-yl]]	63	80	–
O=C(NC1CC1)[C@H]1O[C@@H](n2cnc3c(NCCc4cnc5c(OC6CCCC6)cccn45)ncnc32)[C@H](O)[C@@H]1O [Example 37, β-D-Ribofuranuronamido-N-cyclopropyl-1-deoxy-1-[6-[[2-[8-(cyclopentoxy)imidazo[1,2-a]pyridin-3-yl]ethyl]amino]-9H-purin-9-yl]]	57	–	63
